“Also recorded” adds a separate entry of the source.
Experiments:
Helicobacter pylori = assay: Growth inhibition on a bacterial lawn (filter diffusion); format: cell-based; settings: solution on filter
Experimental: To determine if AMP peptide inhibits growth of H. pylori, a lawn of bacteria was prepared on a culture dish. A small circular filter was placed in the center of the dish, a solution of a test agent was placed on the filter so it diffused onto the lawn, and its effect on bacterial growth around the filter was measured. AMP peptide 77-97 (SEQ ID NO: 12) (Table 1), a scrambled version of this AMP peptide (negative control) (SEQ ID NO: 19), or the antibiotic clarithromycin (positive control) was added to a filter on different cultures. […] In addition, AMP peptide could serve as a therapeutic agent to treat H. pylori infections in the stomach, and thereby prevent the capacity of this organism to cause gastritis, gastric ulcers, and gastric adenocarcinomas.

[1] = system: BSC-1 epithelial cell line; assay: Growth (mitogenesis) assay on confluent BSC-1 cells, cells counted 4 days later; format: cell-based, monkey; settings: for K1/2; concentration for half-maximal growth stimulation / EC50: synthetic peptides of Table 1; for EC50: read-out: K1/2, concentration for half-maximal growth stimulation; for antagonism of the activity of peptide 78-119: inactive overlapping peptide with the mitogenic 42-mer; for antagonism of the activity of peptide 104-117: inactive peptide with the mitogenic 14-mer; for mitogenic activity (in words): compared with related peptides
Text: Finding that a 42-amino acid peptide representing a central region of the novel antrum mucosal cell protein AMP-18 had mitogenic activity similar in character to that of the intact protein in pig and mouse antrum extracts (Table 1), has facilitated the characterization of the bio-active region of the molecule. […] Growth activity determinations have so far been accomplished with the kidney epithelial cell line as well as several gastric and intestinal lines.
Non-transformed monkey kidney epithelial cell line BSC-1 and other epithelial cell lines were used to assess effects on growth. In general, conditions were chosen for each line such that cells are grown to confluence in plastic dishes in supplemented growth medium with minimal calf (or fetal) serum for growth (Lieske et al., 1997); BSC-1 cells become confluent at 10^6/60 mm dish with 1% calf serum. At the start of the growth assay the medium on the confluent culture was aspirated and replaced with fresh medium with minimal serum to maintain viability (0.01% for BSC-1) cells. AMP-18 preparations were added to the culture medium and 4 days later the cell monolayer was rinsed, detached with trypsin, and the cells were counted using a hemocytometer. Determination of the capacity of AMP-18 to initiate DNA synthesis was measured by the incorporation of [^3H]thymidine (Toback, 1980); to confirm the DNA synthesis assay, autoradiograms of leveled cells were counted (Kartha and Toback, 1985).

AGS cells = assay: Growth of gastric epithelial AGS cells (cell count four days later); format: cell-based, human; settings: for growth stimulation of AGS cells (in words): peptide 77-97 8 μg/ml, EGF 50 ng/ml at saturating doses
Experimental: (§1) To characterize the capacity of gastric and intestinal cells to respond to AMP-18, AGS gastric adenocarcinoma cells, HAE human gastric antrum mucosa primary cultures transformed with SV40 large T antigen, rat diploid small intestinal epithelial cells of the IEC-6 (FIG. 15) and IEC-18 lines, NCI N-87 gastric carcinoma cells, and SK-GT5 gastroesophageal adenocarcinoma cells were studied; human WI-38 fibroblasts and HeLa cells served as non-GI control cell lines. Mitogenesis was assayed by performing cell counts 3 to 4 days after exposing cells to the agent of interest, trypsinizing the culture to prepare single cells, and confirming this while counting them in a hemocytometer.

IEC-18 cells = assay: Growth of confluent cultures of IEC-18 cells (cell count); format: cell-based, rat
Experimental: Confluent cultures of IEC-18 cells were prepared. One day later, medium was aspirated and replaced with 5 ml of DMEM containing CS (0.5%) and insulin, without (control) or with mitogenic peptide 58-99 (8 μg/ml). Sister plates receiving 1 ml medium and different amounts of peptide 67-85 were incubated at 1 hr at 38° C. on a CO2 incubator, and then an additional 4 ml of medium was added to each dish. Peptide 58-99 was added to 2 of the 4-sister plates at each concentration of peptide 67-85, and the number of cells was counted. […] Stimulation of cell growth by mitogenic peptide 58-99 was completely abolished by preincubation of cells with 0.25 μg/ml of peptide 67-85. […] Values for the number of cells per culture are shown relative to multiplication of cells exposed to the vehicle during the same period.
Urea (6 M) was employed to release proteins from the insoluble fraction solubilize rhAMP-18 containing the His6-tag (SEQ ID NO: 16), and make it available to bind to the Ni^2+-charged resin from which it was subsequently eluted with a gradient of imidazole (0 to 200 mM). The amount of eluted rhAMP-18 was measured using the BCA assay, and the appearance of a single band at the predicted size of 19-20 kD was confirmed by SDS-PAGE followed by immunoblotting. To determine if eluted rhAMP-18 renatured to assume a structure that was mitogenic, aliquots of the eluate (following removal of urea and imidazole by dialysis) were added to cultures of IEC-18 cells and the number of cells was counted 4 days later. […] AMP peptide 77-97 refers to the mature protein; same as peptide 97-117 of human precursor protein: Table 1. These observations indicate that biologically active recombinant human AMP-18 that can be utilized in diverse clinical situations is available. The mitogenic potency of rhAMP-18 is in the nanomolar range which would be expected for a native gastric cell growth factor that participates in the maintenance and repair of the stomach in vivo.
as §1

[2] = system: occludin, ZO-1, ZO-2, claudin-5, E-cadherin, JAM; assay: Accumulation of tight and adherens junction proteins in C2 cells (immunoblot of insoluble fraction, confocal microscopy); format: cell-based, human; settings: 8 hr; peptides 8 μg/ml, EGF 50 ng/ml
Experimental: To find out how the peptide exerts its cytoprotective effect, C2 cell monolayers were treated with AMP peptide, and oxidant injury was induced with monochloramine 18 hours later. Changes in the levels of specific tight junction (TJ) proteins were checked. Cells were lysed, and proteins of the insoluble/particulate fraction were studied by immunoblotting. […] This observation represents the first evidence that AMP peptide enhances accumulation of specific TJ proteins in colonic epithelial cells. […] To carry out this experiment, C2 cells were exposed to AMP peptide for different periods of time, the NP-40-insoluble fraction was obtained, Western blots were prepared, and the amount of each immunoreactive protein was quantified. A 65% increase in immunoreactivity of each protein compared to control was detected for occludin after 2 hr, and for ZO-1 at 8 hr. Hsc73, which is constitutively expressed in these cells, was not altered by exposure to AMP peptide for up to 18 hr.
Confluent monolayers of C2 cells were treated with AMP peptide or vehicle for 8 hr. Cells were then collected, proteins in the NP-40-insoluble fraction were separated by SDS-PAGE, immunoblots were prepared, and the relative amounts of immunoreactive proteins were compared by densitometric analysis. […] These changes appear relatively specific for occludin, ZO-1, ZO-2, claudin-5, E-cadherin, and JAM because they were not observed for several other proteins localized in the TJ (claudin-1, claudin-2), adherens junction (β-catenin), plasma membrane (Na-K-2Cl cotransporter, α or β subunit of Na-K-ATPase), or cytosol (Rho A, hsc73).
To better understand the mechanism(s) by which AMP peptide enhances accumulation of TJ-associated proteins, experiments were performed to determine whether the peptide exerted its effect at the apical or basolateral surface of C2 cells. Monolayers of C2 cells were grown on Transwell filters, AMP peptide (8:g/ml) was added to the apical or basolateral compartment of the Transwell, and cells were harvested 8 hr later. The NP-40-insoluble fraction was obtained, its proteins separated, and immunoblots were prepared.

For `CC[C@H]1OC(=O)[C@H](C)[C@@H](O[C@H]2C[C@@](C)(OC)[C@@H](O)[C@H](C)O2)[C@H](C)[C@@H](O[C@@H]2O[C@H](C)C[C@H](N(C)C)[C@H]2O)[C@](C)(OC)C[C@@H](C)C(=O)[C@H](C)[C@@H](O)[C@]1(C)O` [clarithromycin], the “growth of H. pylori lawn” value (Helicobacter pylori) was “inhibited growth”.

For “GKPLGQPGKVPKLDGKEPLAK [97–117**, scrambled version of AMP peptide 77-97, negative control, reference compound]”, the “growth stimulation of BSC-1 cells” value ([1]; concentrations up to 8 μg/ml) was “did NOT stimulate growth”, the “growth stimulation of AGS cells (in words)” value (AGS cells) was “not stimulated” and the “growth stimulation of IEC-18 cells (in words)” value (IEC-18 cells; added alone, peptides up to 8 μg/ml) was “did NOT stimulate growth”. For the same molecule, the “accumulation of occludin and ZO-1 (specificity)” value [2] was “not replicated”, the “growth of H. pylori lawn” value (Helicobacter pylori; listed as scrambled AMP peptide) was “not” and the “growth of H. pylori lawn” value (Helicobacter pylori; listed as scrambled peptide) was “did not inhibit growth”.

With GPGG [110–113] the “K1/2; concentration for half-maximal growth stimulation” value (“K1/2; concentration” below) [1] was “Inactive”.

Molecule KGPGGPPPK [109–117] has an EC50 [1] of 2500 nM.

With KKEVMPSIQSLDALVKEKK [87–105] the “antagonism of the activity of the protein in stomach extracts” value [1] was “block”, the “antagonism of the activity of peptide 78-119” value [1] was “block; also recorded: antagonize” and the “antagonism of the activity of peptide 104-117” value (shortened to “antagonism … of peptide 104-117”) ([1]; listed as peptide 87-105) was “blocks; also recorded: antagonizes”. The “K1/2; concentration” value [1] was “Inactive”, the “inhibition of growth stimulation by peptide 58-99” value (AGS cells) was “completely inhibits” and the “growth stimulation of AGS cells (in words)” value (AGS cells) was “not stimulated”. The “concentration nearly abolishing growth-stimulatory effect of peptide 58-99” value (IEC-18 cells; FIG. 17) was ~0.1 µg/mL and the “concentration completely abolishing growth stimulation by peptide 58-99” value (IEC-18 cells; preincubation of cells, peptide 58-99 8 μg/ml) was 0.25 µg/mL.

KKLQGK [104–109] gave an EC50 [1] of 7400 nM.

With “KKLQGKGPGGPPPK [104–117, 14 amino acid mitogenic domain]” the “activity relative to the 42-amino acid peptide” value ([1]; from the higher K1/2 value) was 30-40% and the EC50 [1] was 800 nM.

KKLQGKGPGGPPPKGLMY [104–111] was tested, and the “mitogenic activity (in words)” value [1] was “slightly less activity” and the EC50 [1] was 1000 nM.

For KKTCIVHKMKK [78–88], the “antagonism of the activity of the protein in stomach extracts” value [1] was “block”, the “antagonism of the activity of peptide 78-119” value [1] was “block; also recorded: antagonize” and the “antagonism … of peptide 104-117” value ([1]; listed as 68-88) was “NOT”. The “antagonism … of peptide 104-117” value ([1]; listed as peptide 78-88) was “does not” and the “K1/2; concentration” value [1] was “Inactive”.

For “KKTCIVHKMKKEVMPSIQSLDALVKEKKLQGKGPGGPPPKGL [78–119, 42 amino acid peptide of human preAMP-18, peptide 58-99 of the mature protein]”, the “mitogenic activity (in words)” value [1] was “good mitogenic activity”, the EC50 [1] was 300 nM and the “increase in cell number” value (IEC-18 cells; 3 days, peptide 58-99 8 μg/ml, EGF 50 ng/ml, vehicle 290%) was 407%.

In the case of LDALVKEKKLQGKGPGGPPPKGLMY [97–121], the “mitogenic activity (in words)” value [1] is reported as “more active” and the EC50 [1] is reported as 200 nM.

“LDTMVKEQK . . . GKGPGGAPPKDLMY (LDTMVKEQKGKGPGGAPPKDLMY) [97–119]” showed an EC50 [1] of 200 nM.

B1: intact AMP protein: the intact, natural gastrokine AMP-18 protein of antrum mucosa (protein)
chain: YTVNINGNDGNVDGSGQQSVSINGVHNVANIDNNNGWDSWNSLWDYENSFAATRLFSKKSCIVHRMNKDAMPSLQDLDTMVKEQKGKGPGGAPPKDLMYSVNPTRVEDLNTFGPKIAGMCRGIPTYVAEEIPGPNQPLYSKKCYTADILWILRMSFCGTSVETY
In the case of B1, the “estimate for the activity of the intact AMP protein” value ([1]; estimate) is reported as 1 to 10 nM.
